Measurements as given in patent US20070166772A1, “Methods for selecting compounds using antibodies with activity as antagonist, antagonist or allosteric modulators” (priority 2003, published 2007).

Assays:
[1] = system: second extracellular loop of the 5-HT4 receptor (peptide C15Q); experiment: Inhibition ELISA (IE): anti-peptide antibody against 5-HT4 receptor on the coated synthetic peptide C15Q; type: binding; settings: FIG. 3
Protocol: • Coating • Corresponding peptide is dissolved extemporaneously in appropriate buffer. Peptide at calibrated concentration is coated on a highly absorbing microtitre plate. • Blocking of non-specific binding • Wash • The plate is washed with washing buffer (appendix 1). • Molecules to be screened on the peptide • Each molecule is dissolved and distributed on the plate.
Each molecule which is able to decrease the absorbance at 405 nm at around 20% from its control value is selected for the DMAE.
Five μg/ml of corresponding peptide (C15Q) was coated on a microtitre plate (Falcon, 96 wells). After blocking nonspecific binding sites with blocking buffer, polyclonal anti-C15Q antibodies at decreasing serial dilutions were allowed to react with the peptide.
The same protocol as mentioned above in “Example 1” was performed: […]

[2] = target: second extracellular loop of the muscarinic M2 receptor (homologue peptide) (Homo sapiens, UniProt P08172); experiment: Indirect Inhibition ELISA (IIE): antibody against M2 receptor, homologue peptide and ligand in liquid phase; type: binding; settings: FIG. 5
Sequence of second extracellular loop of the muscarinic M2 receptor (homologue peptide) (P08172 163-182 limits assumed): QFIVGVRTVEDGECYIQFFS
Protocol: The selected molecule should beside binding the parent peptide in solid phase also be able to bind it in liquid phase. The latter would mime the in vivo conformation of the parent peptide. • Coating • Corresponding peptide is dissolved extemporaneously in appropriate buffer. Peptide at calibrated concentration is coated on a highly absorbing microtitre plate. • Blocking of on-specific binding • Wash • The plate is washed with washing buffer (appendix 1). • Selected molecules to be tested on IIE • Each molecule dissolved at known concentration is distributed on the plate. Immediately different cascade concentration of the parent peptide is added to the well. This is thereafter followed by the first antibody at AD50 dilution and incubated for an appropriate time and at an optimal temperature. • Wash • The plate is washed with washing buffer (appendix 1). • Secondary antibodies • Peroxidase conjugated goat anti-rabbit antibodies diluted at appropriate dilution (appendix 2) is allowed to react with the bound polyclonal anti-GPCR antibodies for an appropriate time and at an optimal temperature. • Wash
The same protocol as mentioned above in “Example 1 ” was performed: […]

Row | inhibition of the interaction of the anti-peptide antibody raised against the 5-HT4 receptor with the corresponding synthetic peptide [1] | Compound | competition with the homologue peptide for binding the anti-peptide antibodies [2]
1 | specifically inhibited | NCCc1c[nH]c2ccc(O)cc12 [5-HT, serotonin] | 
2 |  | CC[N+](CC)(CC)CCOc1cccc(OCC[N+](CC)(CC)CC)c1OCC[N+](CC)(CC)CC [gallamine] | able to compete with the homologue peptide and hinder the recognition between the homologue peptide and the anti-peptide in liquid phase
